Here are results for 25 compounds from patent US10040791B2, “Isoxazole derivative as mutant isocitrate dehydrogenase 1 inhibitor” (Daiichi Sankyo Company, Limited, priority 2014, dated 2018).

Assay [1] concerns the target IDH1R132C (Homo sapiens (Human), UniProt O75874, R132C). The experiment in a line: Inhibitory activity against IDH1R132C enzyme (NADPH detection, WST-8). It is filed as biochemical. As to conditions: 10 nM, residual NADPH detected with WST-8, read-out: Test Example 1 IDH1 R132C IC50. The method, then: After transformation of Rosetta 2 (DE3) E. coli, the expression of the protein was induced with IPTG.
While NADPH-derived fluorescence was occasionally monitored, the reaction was terminated by the addition of 5 μL of 0.5 M EDTA before consumption of NADPH. 5 μL of WST-8 reagent (Dojindo Laboratories, #CK04) was further added and mixed therewith. 15 minutes later, the absorbance at 450 nm was measured using a plate reader (PerkinElmer, Inc., EnVision). The observed absorbance value reflects the amount of residual NADPH. From the absorbance data, the enzyme inhibitory activity of each compound at each concentration was calculated and analyzed using medical statistical analysis software GraphPad Prism to calculate an IC50 value.

The subject of assay [2] is HT-1080 cells expressing IDH1R132C. Briefly: 2-HG production inhibitory activity using HT1080 cell. Format: cell-based, human. As to conditions: Homo sapiens, HT-1080; 2-HG production, HT1080 cells; read-out: Test Example 3 IC50. The method, then:
Then, 100 μL of growth medium B was added to each well, further 25 μL of a solution of each compound diluted to a predetermined concentration with growth medium B was added to each well, and the cells were incubated at 37° C. for 2 days under 5% CO2. […] Then, 150 μL of ultrapure water was further added to each well, and the mixture was stirred by pipetting and stored at −20° C.
The preserved solutions were thawed at room temperature.

Chain of IDH1R132C (O75874 whole entry R132C): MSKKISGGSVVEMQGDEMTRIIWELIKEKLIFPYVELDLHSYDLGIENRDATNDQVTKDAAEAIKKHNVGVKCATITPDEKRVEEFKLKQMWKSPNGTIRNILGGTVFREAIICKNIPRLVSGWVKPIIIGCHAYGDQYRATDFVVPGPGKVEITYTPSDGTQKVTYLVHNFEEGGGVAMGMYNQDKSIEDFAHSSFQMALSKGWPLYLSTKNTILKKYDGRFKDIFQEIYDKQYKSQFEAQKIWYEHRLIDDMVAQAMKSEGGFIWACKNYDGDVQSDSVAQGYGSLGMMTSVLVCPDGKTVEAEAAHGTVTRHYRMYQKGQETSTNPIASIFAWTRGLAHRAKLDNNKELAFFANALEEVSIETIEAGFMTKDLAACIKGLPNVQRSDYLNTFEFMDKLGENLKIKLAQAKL

Broadly, the IC50 is the concentration that inhibits the measured activity by half. Consider `Cc1cn(C(=O)c2c(-c3c(Cl)cc(Cl)cc3Cl)noc2C(C)(C)N(C)C)c2cccc(/C=C/C(=O)O)c12` [Example 91, (2E)-3-[1-({5-[2-(Dimethylamino)propan-2-yl]-3-(2,4,6-trichlorophenyl)-1,2-oxazol-4-yl}carbonyl)-3-methyl-1H-indol-4-yl]prop-2-enoic acid], for which the IC50 in assay [1] worked out at 0.12 µM; in assay [2] it was 0.023 µM.

Take `CC(C)c1onc(-c2c(Cl)cccc2Cl)c1C(=O)n1ccc2c(/C=C/C(=O)O)cccc21` [Example 23, (2E)-3-(1-{[3-(2,6-Dichlorophenyl)-5-(propan-2-yl)-1,2-oxazol-4-yl]carbonyl}-1H-indol-4-yl)prop-2-enoic acid]: the figures for the IC50 in assay [1] and in assay [2] were 0.075 µM and 0.709 µM, respectively.

For `CC1(c2onc(-c3c(Cl)cc(Cl)cc3Cl)c2C(=O)n2ccc3c(/C=C/C(=O)O)ccnc32)COC1` [Example 9, (2E)-3-(1-{[5-(3-Methyloxetan-3-yl)-3-(2,4,6-trichlorophenyl)-1,2-oxazol-4-yl]carbonyl}-1H-pyrrolo[2,3-b]pyridin-4-yl]prop-2-enoic acid], the values for the IC50 in assay [1] and in assay [2] were 0.107 µM and 1.27 µM, respectively.

Consider `Cc1cn(C(=O)c2c(-c3c(Cl)cc(Cl)cc3Cl)noc2C2(N(C)C)CC2)c2cccc(/C=C/C(=O)O)c12` [Example 82, (2E)-3-(1-{[5-[1-(Dimethylamino)cyclopropyl]-3-(2,4,6-trichlorophenyl)-1,2-oxazol-4-yl]carbonyl}-3-methyl-1H-indol-4-yl)prop-2-enoic acid], for which the IC50 stood at 0.096 µM in assay [1] and 0.01 µM in assay [2].

Consider `CN(C)c1onc(-c2c(Cl)cccc2Cl)c1C(=O)n1ccc2c(/C=C/C(=O)O)cccc21` [Example 133, (2E)-3-(1-{[3-(2,6-Dichlorophenyl)-5-(dimethylamino)-1,2-oxazol-4-yl]carbonyl}-1H-indol-4-yl)prop-2-enoic acid], for which the IC50 in assay [1] amounted to 0.093 µM; in assay [2] it was 0.39 µM.

With `Cc1cn(C(=O)c2c(-c3c(Cl)cc(Cl)cc3Cl)noc2C2(CN(C)C)CCC2)c2cccc(/C=C/C(=O)O)c12` [Example 88, (2E)-3-(1-{[5-{1-[(Dimethylamino)methyl]cyclobutyl}-3-(2,4,6-trichlorophenyl)-1,2-oxazol-4-yl]carbonyl}-3-methyl-1H-indol-4-yl)prop-2-enoic acid], the figures for the IC50 in assay [1] and in assay [2] were 0.158 µM and 0.061 µM, respectively.

Consider `Cc1cn(C(=O)c2c(-c3c(Cl)ccc(F)c3Cl)noc2C(C)C)c2cccc(/C=C/C(=O)O)c12` [Example 30, (2E)-3-(1-{[3-(2,6-Dichloro-3-fluorophenyl)-5-(propan-2-yl)-1,2-oxazol-4-yl]carbonyl}-3-methyl-1H-indol-4-yl)prop-2-enoic acid], for which the IC50 in assay [1] is 0.114 µM; in assay [2] it was 0.35 µM.

Regarding `CC(C)(F)c1onc(-c2ccc(Cl)c(F)c2Cl)c1C(=O)n1cc2c3c(cccc31)/C(=C/C(=O)O)CC2` [Example 20, (2E)-[1-{[3-(2,4-Dichloro-3-fluorophenyl)-5-(2-fluoropropan-2-yl)-1,2-oxazol-4-yl]carbonyl}-3,4-dihydrobenzo[cd]indol-5(1H)-ylidene]ethanoic acid], the IC50 in assay [1] was found to be 0.267 µM; in assay [2], 0.435 µM.

Turning to `CC(C)(C)c1onc(-c2c(Cl)cccc2Br)c1C(=O)n1ccc2c(/C=C/C(=O)O)cccc21` [Example 39, (2E)-3-(1-{[3-(2-Bromo-6-chlorophenyl)-5-(tert-butyl)-1,2-oxazol-4-yl]carbonyl}-1H-indol-4-yl)prop-2-enoic acid], the IC50 in assay [1] came to 0.168 µM; in assay [2], 0.389 µM.

For the compound `C=CC(=O)N1CCC(C)(c2onc(-c3c(Cl)cc(Cl)cc3Cl)c2C(=O)n2ccc3c(/C=C/C(=O)O)cccc32)CC1` [Example 111], the values for the IC50 in assay [1] and in assay [2] were 0.188 µM and 0.01 µM, respectively.

For `Cc1cn(C(=O)c2c(-c3c(Cl)cc(Cl)cc3Cl)noc2C2(N)CCC2)c2cccc(/C=C/C(=O)O)c12` [Example 90, (2E)-3-(1-{[5-(1-Aminocyclobutyl)-3-(2,4,6-trichlorophenyl)-1,2-oxazol-4-yl]carbonyl}-3-methyl-1H-indol-4-yl)prop-2-enoic acid], the IC50 was found to be 0.059 µM in assay [1] and 0.036 µM in assay [2].

On to `C=CC(=O)N1CCC(c2noc(-c3c(Cl)cc(Cl)cc3Cl)c2C(=O)n2ccc3c(/C=C/C(=O)O)cccc32)CC1` [Example 132, (2E)-3-(1-{[3-(1-Acryloylpiperidin-4-yl)-5-(2,4,6-trichlorophenyl)-1,2-oxazol-4-yl]carbonyl}-1H-indol-4-yl)prop-2-enoic acid], for which the IC50 was found to be 0.279 µM in assay [1] and 0.028 µM in assay [2].

As to `COC(C)(C)c1onc(-c2c(Cl)cc(Cl)cc2Cl)c1C(=O)n1ccc2c(/C=C/C(=O)O)cccc21` [Example 31, (2E)-3-(1-{[5-(2-Methoxypropan-2-yl)-3-(2,4,6-trichlorophenyl)-1,2-oxazol-4-yl]carbonyl}-1H-indol-4-yl)prop-2-enoic acid], the results for the IC50 in assay [1] and in assay [2] were 0.057 µM and 0.024 µM, respectively.

On to `CC(C)c1onc(-c2c(Cl)ccc(F)c2Cl)c1C(=O)n1ccc2c(/C=C/C(=O)O)cccc21` [Example 28, (2E)-3-(1-{[3-(2,6-Dichloro-3-fluorophenyl)-5-(propan-2-yl)-1,2-oxazol-4-yl]carbonyl}-1H-indol-4-yl)prop-2-enoic acid], for which the figures for the IC50 in assay [1] and in assay [2] were 0.09 µM and 0.401 µM, respectively.

In the case of `CC1(c2onc(-c3c(Cl)cccc3Cl)c2C(=O)n2ccc3c(/C=C/C(=O)O)cccc32)CCO1` (centres unmarked) [Example 77, (2E)-3-(1-{[3-(2,6-Dichlorophenyl)-5-(2-methyloxetan-2-yl)-1,2-oxazol-4-yl]carbonyl}-1H-indol-4-yl)prop-2-enoic acid], the figures for the IC50 in assay [1] and in assay [2] were 0.094 µM and 0.428 µM, respectively.

For the compound `CCN(CC)c1onc(-c2c(Cl)cccc2Cl)c1C(=O)n1ccc2c(/C=C/C(=O)O)cccc21` [Example 134, (2E)-3-(1-{[3-(2,6-Dichlorophenyl)-5-(diethylamino)-1,2-oxazol-4-yl]carbonyl}-1H-indol-4-yl)prop-2-enoic acid], the IC50 in assay [1] is 0.143 µM; in assay [2], 0.347 µM.

Turning to `C=CC(=O)N1CCCC(c2onc(-c3c(Cl)cc(Cl)cc3Cl)c2C(=O)n2ccc3c(/C=C/C(=O)O)cccc32)C1` (centres unmarked) [Example 96], the values for the IC50 in assay [1] and in assay [2] were 0.422 µM and 0.29 µM, respectively.

Take `C=CC(=O)N1CCN(c2onc(-c3c(Cl)cccc3Cl)c2C(=O)n2ccc3c(/C=C/C(=O)O)cccc32)C(C)(C)C1` [Example 153, (2E)-3-(1-{[5-(4-Acryloyl-2,2-dimethylpiperazin-1-yl)-3-(2,6-dichlorophenyl)-1,2-oxazol-4-yl]carbonyl}-1H-indol-4-yl)prop-2-enoic acid]: the IC50 in assay [1] amounted to 0.13 µM; in assay [2] it was 0.166 µM.

Consider `CNC(C)(C)c1onc(-c2c(Cl)cc(Cl)cc2Cl)c1C(=O)n1cc2c3c(cccc31)/C(=C/C(=O)O)CC2` [Example 85, (2E)-[1-({5-[2-(Methylamino)propan-2-yl]-3-(2,4,6-trichlorophenyl)-1,2-oxazol-4-yl}carbonyl)-3,4-dihydrobenzo[cd]indol-5(1H)-ylidene]ethanoic acid], for which the results for the IC50 in assay [1] and in assay [2] were 0.099 µM and 0.009 µM, respectively.

With `CNC(C)(C)c1onc(-c2c(Cl)cc(Cl)cc2Cl)c1C(=O)n1cc(C)c2c(/C=C/C(=O)O)cccc21` [Example 84, (2E)-3-[3-Methyl-1-({5-[2-(methylamino)propan-2-yl]-3-(2,4,6-trichlorophenyl)-1,2-oxazol-4-yl]carbonyl}-1H-indol-4-yl)prop-2-enoic acid], the IC50 in assay [1] came to 0.08 µM; in assay [2], 0.015 µM.

Turning to `C=CC(=O)N1CC(OC)(c2onc(-c3c(Cl)cc(Cl)cc3Cl)c2C(=O)n2ccc3c(/C=C/C(=O)O)cccc32)C1` [Example 97], the IC50 in assay [1] worked out at 0.164 µM; in assay [2] it was 0.162 µM.

Turning to `COC1(c2onc(-c3c(F)cc(Cl)cc3Cl)c2C(=O)n2cc(C)c3c(/C=C/C(=O)O)cccc32)CCC1` [Example 14, (2E)-3-(1-{[3-(2,4-Dichloro-6-fluorophenyl)-5-(1-methoxycyclobutyl)-1,2-oxazol-4-yl]carbonyl}-3-methyl-1H-indol-4-yl]prop-2-enoic acid], the 50% inhibitory concentration (IC50) in assay [1] came out at 0.11 µM; in assay [2], 0.032 µM.

Turning to `O=C(O)/C=C/c1cccc2c1ccn2C(=O)c1c(-c2c(Cl)cc(Cl)cc2Cl)noc1C1(F)COC1` [Example 6, (2E)-3-(1-{[5-(3-Fluorooxetan-3-yl)-3-(2,4,6-trichlorophenyl)-1,2-oxazol-4-yl]carbonyl}-1H-indol-4-yl)prop-2-enoic acid], the values for the IC50 in assay [1] and in assay [2] were 0.151 µM and 0.459 µM, respectively.

For `COc1cc(Cl)cc(Cl)c1-c1noc(C(C)(C)F)c1C(=O)n1cc(C)c2c(/C=C/C(=O)O)cccc21` [Example 58, (2E)-3-(1-{[3-(2,4-Dichloro-6-methoxyphenyl)-5-(2-fluoropropan-2-yl)-1,2-oxazol-4-yl]carbonyl}-3-methyl-1H-indol-4-yl)prop-2-enoic acid], the results for the IC50 in assay [1] and in assay [2] were 0.178 µM and 0.295 µM, respectively.

With `C[C@@H]1CCC[C@H](C)N1c1onc(-c2c(Cl)cccc2Cl)c1C(=O)n1ccc2c(/C=C/C(=O)O)cccc21` [Example 137, (2E)-3-(1-{[3-(2,6-Dichlorophenyl)-5-(cis-2,6-dimethylpiperidin-1-yl)-1,2-oxazol-4-yl]carbonyl}-1H-indol-4-yl)prop-2-enoic acid], the IC50 in assay [1] stood at 0.189 µM; in assay [2], 0.299 µM.
